From ChEMBL document CHEMBL1149621, “The synthesis of 18beta-glycyrrhetinic acid derivatives which have increased antiproliferative and apoptotic effects in leukemia cells” (2007) come the findings set out here.

The source made the active and inactive calls. The rule behind the calls is not given here.

The term GI50 denotes the concentration at which growth is held to half of that of the control.

Assay [1] concerns HL-60. The assay can be described thus: Induction of apoptosis in human HL60 cells at 80 uM after 6 hrs by fluorescence microscopy. The format is functional.
The test system of assay [2] is HL-60. Briefly: Antiproliferative activity against human HL60 cells after 72 hrs. The format is functional. The conditions noted are these: HL-60, 72 h.
The test system of assay [3] is HL-60. Briefly: Induction of apoptosis in human HL60 cells assessed as DNA fragmentation at 80 uM after 6 hrs. Type of assay: functional, cell-based.
For assay [4], the system named is HL-60. The assay can be described thus: Induction of apoptosis in human HL60 cells assessed as accumulation of cells in subG1 phase at 80 uM after 6 hrs by FACS method. Type of assay: functional. (A flow cytometer gives signals particle by particle.)

`CCO/N=C1\CC[C@]2(C)C3C(=O)C=C4[C@@H]5C[C@](C)(C(=O)OC)CC[C@]5(C)CC[C@@]4(C)[C@]3(C)CC[C@H]2C1(C)C` (stereo partly drawn) yielded an Activity with HL-60 [1] of 8.6%. For the same compound, in the assay on HL-60 [2], growth was halved (GI50) at 19.1 µM.
With `CO/N=C1\CC[C@]2(C)C3C(=O)C=C4[C@@H]5C[C@](C)(C(=O)O)CC[C@]5(C)CC[C@@]4(C)[C@]3(C)CC[C@H]2C1(C)C` (stereo partly drawn), in the assay on HL-60 [3], the outcome was Active. Moreover, the Activity stood at 60.2% in the assay with HL-60 [1] and 70.9% in the assay with HL-60 [4]. This compound also gave a GI50 in the assay with HL-60 [2] of 36.1 µM.
As to `CCC(=O)O/N=C1\CC[C@]2(C)C3C(=O)C=C4[C@@H]5C[C@](C)(C(=O)O)CC[C@]5(C)CC[C@@]4(C)[C@]3(C)CC[C@H]2C1(C)C` (stereo partly drawn), the Activity in the assay with HL-60 [1] is 27.7%. The compound further showed a 50% growth inhibitory concentration (GI50) in the assay with HL-60 [2] of 57.7 µM.
As for `CCO/N=C1\CC[C@]2(C)C3C(=O)C=C4[C@@H]5C[C@](C)(C(=O)O)CC[C@]5(C)CC[C@@]4(C)[C@]3(C)CC[C@H]2C1(C)C` (stereo partly drawn), in the assay with HL-60 [3], the result was Active. Further, the Activity with HL-60 [1] was 59.7%; in the assay with HL-60 [4] it was 68.7%. Moreover, the GI50 in the assay with HL-60 [2] came to 24.4 µM.
For the compound `CCCO/N=C1\CC[C@]2(C)C3C(=O)C=C4[C@@H]5C[C@](C)(C(=O)OC)CC[C@]5(C)CC[C@@]4(C)[C@]3(C)CC[C@H]2C1(C)C` (stereo partly drawn), in the assay with HL-60 [1], the Activity is on record as 4.9%. In the assay with HL-60 [2], this compound returned a GI50 of 19 µM.
For `CC1(C)[C@@H](O)CC[C@]2(C)C3C(=O)C=C4[C@@H]5C[C@](C)(C(=O)O)CC[C@]5(C)CC[C@@]4(C)[C@]3(C)CC[C@@H]12` (stereo partly drawn), the outcome in the assay on HL-60 [3] was inactive. Besides, the Activity is listed as 24.9% in the assay with HL-60 [1] and 12.7% in the assay with HL-60 [4]. Moreover, it took 63.2 µM to inhibit growth in the assay on HL-60 [2] by half (GI50).
For `CC1(C)C(=O)CC[C@]2(C)C3C(=O)C=C4[C@@H]5C[C@](C)(C(=O)O)CC[C@]5(C)CC[C@@]4(C)[C@]3(C)CC[C@@H]12` (stereo partly drawn), the Activity in the assay on HL-60 [1] is reported as 28.5%. Growth with HL-60 [2] was halved (GI50) at 59.6 µM.
The like results for `CC(=O)O/N=C1\CC[C@]2(C)C3C(=O)C=C4[C@@H]5C[C@](C)(C(=O)O)CC[C@]5(C)CC[C@@]4(C)[C@]3(C)CC[C@H]2C1(C)C` (stereo partly drawn) were, in that order, 19.1% and 58.8 µM.
The like results for `CC1(C)/C(=N/O)CC[C@]2(C)C3C(=O)C=C4[C@@H]5C[C@](C)(C(=O)O)CC[C@]5(C)CC[C@@]4(C)[C@]3(C)CC[C@@H]12` (stereo partly drawn) were, in that order, 24.5% and 63 µM.
Regarding `CCCO/N=C1\CC[C@]2(C)C3C(=O)C=C4[C@@H]5C[C@](C)(C(=O)O)CC[C@]5(C)CC[C@@]4(C)[C@]3(C)CC[C@H]2C1(C)C` (stereo partly drawn), in the assay on HL-60 [3], the outcome was Active. Also, the Activity in the assay on HL-60 [1] was determined as 87.3%; in the assay on HL-60 [4], 80.3%. Moreover, in the assay on HL-60 [2], the GI50 amounted to 20.6 µM.
